Results published in ChEMBL document CHEMBL5393447, “Selective foxo inhibitors for treatment of diabetes and other disorders related to impaired pancreatic function” (2022).

test system: not listed separately; test: Metabolic stability in human hepatocytes assessed as compound remaining at 0.3 uM measured upto 90 mins by LC-MS/MS analysis; assay type: ADME, cell-based, Hepatocyte; conditions: read-out: Stability

remaining at 1.5 h, 0.3 µM	Structure (SMILES)
110%	O=C(Nc1cc(-c2nc3ccccc3[nH]2)n[nH]1)c1ccc(N2CCNCC2)cc1

molecular target: Forkhead box protein O1 (Homo sapiens) (UniProt Q12778); conditions: HEK293, dose 1-50000 nM
Sequence (Q12778 whole entry): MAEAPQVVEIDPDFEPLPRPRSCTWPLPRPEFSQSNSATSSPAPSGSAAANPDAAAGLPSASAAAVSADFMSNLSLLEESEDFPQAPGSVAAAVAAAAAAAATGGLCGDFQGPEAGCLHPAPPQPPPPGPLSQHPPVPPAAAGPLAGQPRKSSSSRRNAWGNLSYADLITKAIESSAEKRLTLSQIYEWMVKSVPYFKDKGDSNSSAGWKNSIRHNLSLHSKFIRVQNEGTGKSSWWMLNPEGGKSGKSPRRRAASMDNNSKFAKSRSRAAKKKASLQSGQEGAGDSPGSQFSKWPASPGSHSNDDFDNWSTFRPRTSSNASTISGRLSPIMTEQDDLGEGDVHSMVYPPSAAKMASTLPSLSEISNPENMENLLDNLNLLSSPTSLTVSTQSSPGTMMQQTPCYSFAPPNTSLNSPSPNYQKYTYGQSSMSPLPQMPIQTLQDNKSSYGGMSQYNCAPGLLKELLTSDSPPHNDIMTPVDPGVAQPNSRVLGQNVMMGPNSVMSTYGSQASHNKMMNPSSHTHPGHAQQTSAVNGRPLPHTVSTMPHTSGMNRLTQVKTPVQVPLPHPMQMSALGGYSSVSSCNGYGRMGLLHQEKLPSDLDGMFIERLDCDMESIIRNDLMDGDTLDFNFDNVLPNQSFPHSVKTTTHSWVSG
Description: Inhibition of human FOXO1 expressed in HEK293 cells at 1 nM to 50 uM by Dual-Glo luciferase assay relative to control

inhibition	Structure (SMILES)
> 40%	COc1ccc(C(=O)Nc2cc(-c3nc4c(C(F)(F)F)cccc4[nH]3)[nH]n2)cc1Cl
> 40%	COc1ccc(C(=O)Nc2cc(-c3nc4cc(OC(F)(F)F)ccc4[nH]3)[nH]n2)cc1Cl
> 40%	COc1ccc(C(=O)Nc2cc(-c3nc4cc(C(F)(F)F)ccc4[nH]3)[nH]n2)cc1Cl

More lines, now with the values behind:

Structure (SMILES)	inhibition
CC(=O)N1CCN(c2ccc(C(=O)Nc3cc(-c4nc5ccccc5[nH]4)n[nH]3)cc2)CC1	> 40%
CC(=O)Nc1cc(-c2nc3ccccc3[nH]2)n[nH]1	< 40%
CN1CCC(c2ccc(C(=O)Nc3cc(-c4nc5ccccc5[nH]4)n[nH]3)cc2)CC1	> 40%
Nc1cc(-c2nc3ccccc3[nH]2)n[nH]1	< 40%
CN1CCN(c2ccc(C(=O)Nc3cc(-c4nc5ccccc5[nH]4)n[nH]3)cc2)CC1	> 40%
